# Experimental data reported in article PMC11740094, “Design and synthesis of cyclic lipidated peptides derived from the C-terminus of Cx43 for hemichannel inhibition and cardiac endothelium targeting” (RSC Medicinal Chemistry, 2024).
# Where two headings read alike, the source gives them in different places. Residues, ends and D or L forms follow the SMILES beside them. *: point of attachment. Palmitoyl = CCCCCCCCCCCCCCCC(=O)*
# Tests used:
# physchem = assay type: physicochemical; conditions: water
# [1] = test system: Cx43 HCs (SK-HEP-1–Cx43 cells); test: ATP release assay in SK-HEP-1–Cx43 transfectants (selectivity); assay type: cell-based, human; conditions: calcium-free conditions, N = 3
# Excerpt: (§1) Two cell types were chosen to assess the specificity of the Cx43 analogues. HeLa cells derived from human cervical cancer are the oldest and most commonly used immortalized cells. These cells are so-called communication-incompetent, i.e. known to not endogenously express connexins,[71] while SK-HEP-1 cells, a human liver sinusoid endothelial cell line, are devoid of Cx43 but express a small amount of Cx45.[72] Together with these parental cells, HeLa cells and SK-HEP-1 cells stably transfected with Cx43 were used (HeLa–Cx43 (ref. [73]) and SK-HEP-1–Cx43,[72] respectively). The presence and absence of Cx43 in the different cell lines were confirmed by Western blotting (Fig. 8a). The specificity of the control peptides Gap27, TAT-Gap19, αCT1 as well as the cyclic analogue 11 for Cx43 HCs was assessed through ATP release measurements in these pairs of cells, and is shown in Fig. 8b (and Table S4 ^†) for parental and HeLa–Cx43 cells and in Fig. 8c (and Table S5 ^†) for parental and SK-HEP-1–Cx43 cells. No induction of ATP release was observed when parental HeLa cells were exposed to calcium-free conditions. […] However, a doubling of ATP release was observed when parental SK-HEP-1 cells were exposed to calcium-free conditions, which was attenuated by the treatment with Cbx and all peptides, indicating an effect of the compounds on Cx45 HC. […] Nonetheless, the cardioprotective properties of αCT1 are generally ascribed to its interaction with the Cx43 protein,[23] thus it is reasonable to assume that these properties will be retained by the proteolytically stable 10 peptide.
# (§2) ATP release assays were performed using previously described methods.[60] Briefly, B16-BL6 cells, HeLa cells or SK-HEP-1 cells were seeded into 96-well plates and grown until they reached confluence. […] The cells were then washed with calcium-free HBSS and incubated with aforementioned compounds in calcium-free HBSS for 30 minutes. Supernatants were collected and ATP bioluminescence measurements were performed using an ATP bioluminescence kit (Sigma-Aldrich) according to the manufacturer's instructions. ATP release under each condition was expressed as the percentage of calcium-free-induced ATP release. ATP release of cells incubated with HBSS was used as a control for basal ATP release. Triplicates were performed for each independent experiment.
# [2] = target: T1, Cx45 HC (parental SK-HEP-1 cells, devoid of Cx43) (Homo sapiens, UniProt P36383); test: ATP release assay in parental SK-HEP-1 cells (selectivity); assay type: cell-based; conditions: calcium-free conditions, N = 3
# T1 construct: are devoid of Cx43 but express a small amount of Cx45; endogenous in cells; host or cells: parental SK-HEP-1 cells
# T1 sequence (P36383 whole entry): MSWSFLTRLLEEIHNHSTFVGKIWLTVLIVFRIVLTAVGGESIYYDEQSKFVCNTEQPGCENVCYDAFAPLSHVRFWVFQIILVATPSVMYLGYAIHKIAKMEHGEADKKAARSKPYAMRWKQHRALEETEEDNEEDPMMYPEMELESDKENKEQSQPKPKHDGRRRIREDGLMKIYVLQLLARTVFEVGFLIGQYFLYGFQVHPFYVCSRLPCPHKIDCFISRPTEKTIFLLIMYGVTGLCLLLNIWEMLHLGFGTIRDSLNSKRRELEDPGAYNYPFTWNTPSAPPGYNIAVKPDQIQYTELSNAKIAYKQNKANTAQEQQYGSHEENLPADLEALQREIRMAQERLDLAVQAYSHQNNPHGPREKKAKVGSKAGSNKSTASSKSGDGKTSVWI
# Excerpt: as §1, §2
# [3] = test system: parental HeLa cells (no endogenous connexins); test: ATP release assay in parental HeLa cells (selectivity); assay type: cell-based, human; conditions: calcium-free conditions, N = 3
# Excerpt: as §1, §2
# [4] = target: T2, Cx43 HCs (HeLa–Cx43 cells) (Homo sapiens, UniProt P17302); test: ATP release assay in HeLa–Cx43 transfectants (selectivity); assay type: cell-based; conditions: for ATP release, mean (Table S4, Fig. 8b), HeLa-Cx43: calcium-free conditions, N = 3
# T2 construct: expressed in transfected cells
# T2 sequence (P17302 whole entry): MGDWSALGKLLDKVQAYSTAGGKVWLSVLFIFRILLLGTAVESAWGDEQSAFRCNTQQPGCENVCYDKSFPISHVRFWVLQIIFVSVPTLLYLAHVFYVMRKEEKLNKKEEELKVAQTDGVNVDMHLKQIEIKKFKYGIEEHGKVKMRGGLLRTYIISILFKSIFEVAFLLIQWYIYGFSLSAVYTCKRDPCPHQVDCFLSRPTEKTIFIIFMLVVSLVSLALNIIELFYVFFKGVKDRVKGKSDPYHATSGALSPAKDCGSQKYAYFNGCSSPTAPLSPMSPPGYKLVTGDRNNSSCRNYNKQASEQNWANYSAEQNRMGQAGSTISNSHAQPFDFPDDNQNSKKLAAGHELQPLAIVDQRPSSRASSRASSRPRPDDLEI
# Excerpt: as §1, §2
# [5] = target: T3, Cx43 HCs (B16-BL6 cells endogenously expressing Cx43) (Mus musculus, UniProt P23242); test: ATP release assay in B16-BL6 cells, hemichannels opened by calcium depletion; assay type: cell-based, murine
# T3 construct: a murine melanoma cell line endogenously expressing Cx43; endogenous in cells; host or cells: B16-BL6 mouse melanoma cells
# T3 sequence (P23242 whole entry): as the sequence (P17302 whole entry) above, with D124E, I164V, K243R, S251T, A253P, A257S, Q263P, N341S, S344A, L347V counted along it
# Method: The inhibitory capacity of the peptides on connexin HC activity was determined in vitro by measuring ATP release triggered by a depletion of extracellular Ca^2+, hereafter called “calcium-free” condition.[60] The assays were performed on B16-BL6 cells, a murine melanoma cell line endogenously expressing Cx43.[61] To measure ATP release, B16-BL6 cells were rinsed with a physiological Hanks' balanced salt solution (HBSS; control) followed by incubation for 5 minutes in HBSS containing the peptides. After rinsing with calcium-free HBSS (Ca-free), the cells were incubated with Ca-free containing the peptides for 30 minutes. Positive and negative control conditions included 30 minute incubation with HBSS, Ca-free without peptides or Ca-free containing 25 μM of the non-selective small-molecule inhibitor Cbx. ATP release in the supernatant was measured by bioluminescence. In order to determine the optimal concentration of peptides to be used in the assays, an initial round of testing was conducted on the control peptides αCT1, Gap27,[62]Gap19 (ref. [15]) and TAT-Gap19 (ref. [15]) as well as Cbx.[63] A doubling of ATP release was observed 30 minutes after the switch to the calcium-free solution, indicating effective Cx43 HC channel opening under these conditions (Fig. 5a and Table S1 ^†). As expected, the nonspecific connexin HC inhibitor Cbx (25 μM) reduced calcium-free-induced ATP release to nearly control conditions. At a high concentration (100 μM), Gap19, Gap27 and αCT1 had minimal to no effect on ATP release while TAT-Gap19 had the opposite effect inducing the release of ATP to a similar extent as the detergent Triton X-100 (1%). This might be due to the presence of the CPP motif, causing some disturbance at the level of the cellular membrane, and correlated with the previous findings on the use of the peptide at high concentrations.[64,65] […]
# ATP release assays were performed using previously described methods.[60] […] ATP release under each condition was expressed as the percentage of calcium-free-induced ATP release. […]
# cardiac endothelium = conditions: binding to markers on the cell surface of the cardiac endothelium; cited from earlier work
# Excerpt: To further increase the therapeutic potential of a drug candidate, targeted delivery to the organ or tissue of interest after systemic treatment is highly desirable. The use of homing peptides, i.e. peptides that selectively bind to markers expressed on the surface of different cell types, can increase the specificity and efficacy of drug delivery, while reducing the side effects linked to off-target interactions. A wide variety of peptides homing to different tissues and pathological conditions has been identified, mostly through phage-display techniques, and used as delivery vehicles for dru ...
# Cx43 HC = conditions: cited from earlier work
# Method: The inhibitory capacity of the peptides on connexin HC activity was determined in vitro by measuring ATP release triggered by a depletion of extracellular Ca^2+, hereafter called “calcium-free” condition.[60] The assays were performed on B16-BL6 cells, a murine melanoma cell line endogenously expressing Cx43.[61] To measure ATP release, B16-BL6 cells were rinsed with a physiological Hanks' balanced salt solution (HBSS; control) followed by incubation for 5 minutes in HBSS containing the peptides. After rinsing with calcium-free HBSS (Ca-free), the cells were incubated with Ca-free containing t ...
# [6] = set-up: method as in PMID 34063001; conditions: mouse serum; cited from earlier work
# [7] = peptide applied extracellularly, read-out: IC50 on Cx43-mediated ATP release
Compound,"ATP release, mean (Table S5, Fig. 8c), SK-HEP-1-Cx43 ([1]; peptide 5 μM) [nM]","ATP release, mean (Table S5, Fig. 8c), Parental SK-HEP-1 ([2]; peptide 5 μM) [nM]","ATP release, mean (Table S4, Fig. 8b), Parental HeLa ([3]; peptide 5 μM) [nM]",reduction of calcium-free-induced ATP release in HeLa–Cx43 cells ([4]; peptide 5 μM),"ATP release, mean (Table S4, Fig. 8b), HeLa-Cx43 ([4]; peptide 5 μM) [nM]",other results
CCCCCCCCCCCCCCCC(=O)N[C@@H](CCCCN)C(=O)N[C@@H](CCC(N)=O)C(=O)N[C@H](C(=O)N[C@@H](CCC(=O)O)C(=O)N[C@H](C(=O)N[C@@H](CCCCN)C(=O)N[C@@H](CCCCN)C(=O)N[C@@H](Cc1ccccc1)C(=O)N[C@@H](CCCCN)C(=O)O)[C@@H](C)CC)[C@@H](C)CC [Palm-Gap19] (Palmitoyl-KQIEIKKFK-OH),–,–,–,–,–,solubility (physchem): ≥ 100 µM
"CC1(C)[C@@H](OC(=O)CCC(=O)O)CC[C@]2(C)[C@H]3C(=O)C=C4[C@@H]5C[C@@](C)(C(=O)O)CC[C@]5(C)CC[C@@]4(C)[C@]3(C)CC[C@@H]12 [Cbx, carbenoxolone]",–,–,–,–,–,"ATP release, mean (Table S5, Fig. 8c), SK-HEP-1-Cx43 ([1]; Cbx 25 μM): 26.4826 nM; ATP release, mean (Table S5, Fig. 8c), Parental SK-HEP-1 ([2]; Cbx 25 μM): 13.9931 nM; ATP release, mean (Table S4, Fig. 8b), Parental HeLa ([3]; Cbx 25 μM): 0.9207 nM; inhibition of calcium-free-induced ATP release in HeLa–Cx43 cells (in words) ([4]; Cbx 25 μM): completely inhibited; ATP release, mean (Table S4, Fig. 8b), HeLa-Cx43 ([4]; Cbx 25 μM): 2.1867 nM; ATP release, mean normalized to calcium-free condition (Table S2, Fig. 5b) ([5]; Cbx 25 μM, calcium-free 30 min, N = 3–9): 60.4766%; ATP release, mean normalized to calcium-free condition (Table S3, Fig. 6b) ([5]; Cbx 25 μM, calcium-free 30 min, N = 5–10): 78.1965%"
Triton X-100,–,–,–,–,–,"ATP release, mean normalized to calcium-free condition (Table S1, Fig. 5a) ([5]; Triton X-100 1%, cell lysis control, N = 3–9): 248.6069%"
CRPPR [cardiac endothelium-homing pentapeptide],–,–,–,–,–,selectivity of targeting the heart (cardiac endothelium): > 300 fold
"CC[C@H](C)[C@H](NC(=O)[C@H](CCC(=O)O)NC(=O)[C@@H](NC(=O)[C@H](CCC(N)=O)NC(=O)[C@@H](N)CCCCN)[C@@H](C)CC)C(=O)N[C@@H](CCCCN)C(=O)N[C@@H](CCCCN)C(=O)N[C@@H](Cc1ccccc1)C(=O)N[C@@H](CCCCN)C(=O)O [Gap19, H-KQIEIKKFK-OH] (H-KQIEIKKFK-OH)",–,–,–,–,–,"IC50 (Cx43 HC; intracellular application via whole-cell recording pipette, read-out: IC50 when applied intracellularly via a whole-cell recording pipette): 7 µM; IC50 (Cx43 HC; [7]): ~50 µM"
CC[C@H](C)[C@H](NC(=O)[C@@H](NC(=O)[C@H](Cc1ccccc1)NC(=O)[C@@H](NC(=O)[C@@H](NC(=O)[C@H](CCCCN)NC(=O)[C@H](CCC(=O)O)NC(=O)[C@@H](NC(=O)[C@@H]1CCCN1C(=O)[C@H](CCCNC(=N)N)NC(=O)[C@@H](N)CO)[C@@H](C)O)[C@@H](C)O)[C@@H](C)CC)[C@@H](C)CC)C(=O)O [Gap27] (H-SRPTEKTIFII-OH),36.9304,8.5784,0.9529,40–45%,9.3690,–
H-RPRPDDLEI-OH [αCT11],–,–,–,–,–,time in which the peptide was found to be degraded [6]: 30 min
H-RQPKIWFPNRRKPWKKRPRPDDLEI-OH [αCT1],39.5655,6.6804,1.6218,40–45%,9.6282,–
CC(=O)N[C@@H](CO)C(=O)N[C@@H](CCCNC(=N)N)C(=O)N1CCC[C@H]1C(=O)N[C@@H](CCCNC(=N)N)C(=O)N1C[C@@H]2C[C@H]1C(=O)N[C@@H](CC(=O)O)C(=O)N[C@@H](CC(=O)O)C(=O)N[C@@H](CC(C)C)C(=O)N[C@@H](CCC(=O)O)C(=O)N[C@H](C(N)=O)Cc1cn2nn1 [compound 11],38.4712,7.9522,1.5371,40–45%,8.7419,–
CC[C@H](C)[C@H](NC(=O)[C@H](CCC(=O)O)NC(=O)[C@@H](NC(=O)[C@H](CCC(N)=O)NC(=O)[C@H](CCCCN)NC(=O)[C@H](CCCNC(=N)N)NC(=O)[C@H](CCCNC(=N)N)NC(=O)[C@H](CCCNC(=N)N)NC(=O)[C@H](CCC(N)=O)NC(=O)[C@H](CCCNC(=N)N)NC(=O)[C@H](CCCNC(=N)N)NC(=O)[C@H](CCCCN)NC(=O)[C@H](CCCCN)NC(=O)[C@H](CCCNC(=N)N)NC(=O)CNC(=O)[C@@H](N)Cc1ccc(O)cc1)[C@@H](C)CC)C(=O)N[C@@H](CCCCN)C(=O)N[C@@H](CCCCN)C(=O)N[C@@H](Cc1ccccc1)C(=O)N[C@@H](CCCCN)C(=O)O [TAT-Gap19] (H-YGRKKRRQRRRKQIEIKKFK-OH),55.5511,15.3639,1.3701,40–45%,10.9629,IC50 (Cx43 HC; [7]): 7 µM
